Measured values reported in paper PMC4262670 (Macromolecular bioscience, 2014).

Tests used:
[1] = cited from earlier work; for water solubility of free drugs: medium with 0.5 % (v/v) DMSO used to prevent precipitation, no reference given
[2] = tested on: A2780 and OVCAR-3 human ovarian cancer cell lines; experiment: Single agent in vitro cytotoxicity, WST-8, result stated over both cell lines; type: cell-based; details: A2780 versus OVCAR-3, WST-8
[3] = ref [8]; cited from earlier work
[4] = ref [13]–[15]; cited from earlier work
[5] = clinical investigation; ref [31]; cited from earlier work
[6] = tested on: non-small cell lung carcinoma (NSCLC); details: ref [59]; cited from earlier work
[7] = tested on: first recurrence of ovarian cancer; details: added to carboplatin and gemcitabine; ref [56]; cited from earlier work

Molecule: C=CCNC1=C2C[C@@H](C)C[C@H](OC)[C@H](O)[C@@H](C)/C=C(\C)[C@H](OC(N)=O)[C@@H](OC)/C=C\C=C(/C)C(=O)NC(=CC1=O)C2=O [17-AAG, 17-(allylamino)-17-demethoxygeldanamycin]
- water solubility, ref 32 ([1]; ref [32]): poorly water soluble

Molecule: CO[C@H]1/C=C\C=C(/C)C(=O)NC2=CC(=O)C(NCCCCCCN)=C(C[C@@H](C)C[C@H](OC)[C@H](O)[C@@H](C)/C=C(\C)[C@@H]1OC(N)=O)C2=O [AHGDM, 17-(hexane-1,6-diamine)-17-demethoxygeldanamycin]
- differences in susceptibility of cell lines [2]: did not indicate overall trends in differences in the susceptibility
- water solubility of free drugs [1]: poor water solubility

Molecule: CC(=O)O[C@@]12CO[C@@H]1C[C@H](O)[C@@]1(C)C(=O)[C@H](O)C3=C(C)[C@@H](OC(=O)[C@H](O)[C@@H](NC(=O)OC(C)(C)C)c4ccccc4)C[C@@](O)([C@@H](OC(=O)c4ccccc4)[C@H]21)C3(C)C [DOC, docetaxel]
- differences in susceptibility of cell lines [2]: did not indicate overall trends in differences in the susceptibility
- in vitro cytotoxicity compared to paclitaxel [3]: superior in vitro cytotoxicity
- cross resistance with paclitaxel [4]: does not demonstrate complete cross resistance with paclitaxel
- water solubility of free drugs [1]: poor water solubility

Molecule: COC1=C2C[C@@H](C)C[C@H](OC)[C@H](O)[C@@H](C)/C=C(\C)[C@H](OC(N)=O)[C@@H](OC)/C=C\C=C(/C)C(=O)NC(=CC1=O)C2=O [geldanamycin]
- hepatotoxicity [5]: significant hepatotoxicity

Molecule: CC(=O)O[C@H]1C(=O)[C@@]2(C)[C@H]([C@H](OC(=O)c3ccccc3)[C@]3(O)C[C@H](OC(=O)[C@H](O)[C@@H](NC(=O)c4ccccc4)c4ccccc4)C(C)=C1C3(C)C)[C@]1(OC(C)=O)CO[C@@H]1C[C@@H]2O [paclitaxel]
- mean survival time [6]: 6.5 weeks

Molecule: bevacizumab: anti-angiogenic monoclonal antibody against VEGF-A, added to carboplatin and gemcitabine
- disease progression and overall survival [7]: greater reduction in risk of disease progression and an improvement in overall survival
